Measured values: ChEMBL document CHEMBL1201862, “PubChem BioAssay data set” (2004)
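All cell lines were grown in 96-well plates and treated with compound for 48 hours. Abbreviation: GI50, concentration required for 50% inhibition of growth.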 Activity calls are given as the source filed them. Cut-off read from the data, not from the text of the source: active = GI50 up to about 1.1 µM and inactive = higher.

Tests used:
Assay in all cases: inhibition of tumour cell growth, NCI panel, 48 h
[1] = test system: SNB-19
[2] = test system: SF-295
[3] = test system: K562
[4] = test system: SR
[5] = test system: CAKI-1
[6] = test system: SW-620
[7] = test system: SNB-75
[8] = test system: IGROV-1
[9] = test system: UO-31
[10] = test system: SF-268
[11] = test system: COLO 205
[12] = test system: HL-60
[13] = test system: U-251
[14] = test system: NCI-H522

Row | Structure (SMILES) | GI50 [1] | GI50 [2] | GI50 [3] | GI50 [4] | GI50 [5] | GI50 [6] | GI50 [7] | GI50 [8] | GI50 [9] | GI50 [10] | GI50 [11] | GI50 [12] | GI50 [13] | GI50 [14]
1 | O=C(CCc1nnc(S)[nH]1)NC12CC3CC(CC(C3)C1)C2 | > 100 µM (inactive) | > 100 µM (inactive) | > 100 µM (inactive) | 1 µM (active) | > 70.5 µM (inactive) | > 100 µM (inactive) | > 100 µM (inactive) | > 100 µM (inactive) | > 100 µM (inactive) | > 10 µM (inactive) | > 100 µM (inactive) | > 100 µM (inactive) | > 100 µM (inactive) | 
2 | O=C1/C(=C/c2ccccc2Cl)COc2ccccc21 |  | 19.1 µM (inactive) | 3.93 µM (inactive) |  |  | 5.73 µM (inactive) | 18 µM (inactive) | 18.1 µM (inactive) | 15.1 µM (inactive) | 17.5 µM (inactive) | 21.7 µM (inactive) | 17.6 µM (inactive) | 13.7 µM (inactive) | 16.6 µM (inactive)
3 | O=C(CC1=Nc2nnc(-c3nnc4n3C(=O)C(CC(=O)c3cccnc3)=N4)n2C1=O)c1cccnc1 | > 100 µM (inactive) | > 100 µM (inactive) | > 100 µM (inactive) |  | > 100 µM (inactive) | > 100 µM (inactive) | > 100 µM (inactive) | > 100 µM (inactive) | > 100 µM (inactive) | > 100 µM (inactive) | > 100 µM (inactive) | > 100 µM (inactive) | > 100 µM (inactive) | > 100 µM (inactive)
4 | O=CCCCC(Sc1ccccc1)Sc1ccccc1 | 45.4 µM (inactive) | 18.1 µM (inactive) | 14.4 µM (inactive) | 15.6 µM (inactive) | 56.8 µM (inactive) | 11.4 µM (inactive) | 18.2 µM (inactive) | 19.9 µM (inactive) | 14.7 µM (inactive) | 18.4 µM (inactive) | 23.5 µM (inactive) | 6.1 µM (inactive) | 15.5 µM (inactive) | > 100 µM (inactive)
5 | COc1ccc(CC(C)N)cc1 (stereo not drawn) [PARA-METHOXYAMPHETAMINE] | > 100 µM (inactive) | > 100 µM (inactive) | > 100 µM (inactive) | > 100 µM (inactive) | > 100 µM (inactive) | > 100 µM (inactive) | > 100 µM (inactive) | > 100 µM (inactive) | > 100 µM (inactive) | > 100 µM (inactive) | > 100 µM (inactive) | > 100 µM (inactive) | > 100 µM (inactive) | > 100 µM (inactive)
6 | c1ccc2c3nc(C4CCCC4)nc-3c(NC3CCCC3)[nH]c2c1 | 45.1 µM (inactive) | 16.8 µM (inactive) | 7.83 µM (inactive) | 10.3 µM (inactive) |  | 5.43 µM (inactive) | 66.1 µM (inactive) | 20.3 µM (inactive) | 21.6 µM (inactive) | 16.9 µM (inactive) | 19 µM (inactive) | 2.3 µM (inactive) | 3.23 µM (inactive) | 18.4 µM (inactive)
7 | CC(C)N(O)C(=N)c1ccccc1 | > 100 µM (inactive) | > 100 µM (inactive) |  |  | > 100 µM (inactive) | > 100 µM (inactive) | > 100 µM (inactive) |  | > 100 µM (inactive) | > 100 µM (inactive) |  | > 100 µM (inactive) | > 100 µM (inactive) | > 100 µM (inactive)
8 | CS(=O)(=O)N(CCC#N)c1ccc(/C=C2\N=C(c3ccccc3Cl)OC2=O)cc1 | > 100 µM (inactive) | > 100 µM (inactive) | > 100 µM (inactive) |  | > 100 µM (inactive) | > 100 µM (inactive) | > 100 µM (inactive) | > 100 µM (inactive) | > 100 µM (inactive) | > 100 µM (inactive) | > 100 µM (inactive) | > 100 µM (inactive) | > 100 µM (inactive) | > 100 µM (inactive)
9 | Cc1cc(N(CCC#N)S(C)(=O)=O)ccc1C=O | > 100 µM (inactive) | > 100 µM (inactive) | > 100 µM (inactive) | > 100 µM (inactive) | > 100 µM (inactive) | > 100 µM (inactive) | > 100 µM (inactive) | > 100 µM (inactive) | > 100 µM (inactive) | > 100 µM (inactive) | > 100 µM (inactive) | > 100 µM (inactive) | > 100 µM (inactive) | > 100 µM (inactive)
10 | CCN(CC)c1ccc(C(=C2C=CC(=[N+](CC)CC)C=C2)c2ccccc2)cc1 | 0.043 µM (active) | 0.0248 µM (active) | 0.0213 µM (active) | 0.0224 µM (active) | 0.164 µM (active) | 0.0291 µM (active) | 0.0586 µM (active) | 0.0689 µM (active) | 0.0366 µM (active) | 0.0366 µM (active) | 0.0307 µM (active) | < 0.01 µM (active) | 0.0234 µM (active) | 0.0177 µM (active)
11 | CN(C)C(=N/O)/C(=N\O)N(C)C | > 100 µM (inactive) | > 100 µM (inactive) | > 100 µM (inactive) | > 100 µM (inactive) | > 100 µM (inactive) | > 100 µM (inactive) | > 100 µM (inactive) | > 100 µM (inactive) | > 100 µM (inactive) | > 100 µM (inactive) |  | > 100 µM (inactive) | > 100 µM (inactive) | > 100 µM (inactive)
12 | O=c1c2cc(Br)ccc2[nH]c(=S)n1-c1ccc(Br)cc1 | 47.9 µM (inactive) | 45.5 µM (inactive) | > 100 µM (inactive) | > 100 µM (inactive) |  | > 100 µM (inactive) | 12.1 µM (inactive) | > 100 µM (inactive) | > 100 µM (inactive) | > 100 µM (inactive) | > 100 µM (inactive) | > 100 µM (inactive) | 47.3 µM (inactive) | > 100 µM (inactive)
13 | O=C[C@]12CC=C3OC4OC5(CCCCC5)OC4[C@H]3[C@H]1C(=O)C=CC2=O (stereo partly drawn) | 28.4 µM (inactive) | 34.6 µM (inactive) | > 10 µM (inactive) | 2.52 µM (inactive) | 23 µM (inactive) | 19.3 µM (inactive) |  |  | 12.1 µM (inactive) | 8.71 µM (inactive) |  | 0.406 µM (active) | 22.7 µM (inactive) | 5.9 µM (inactive)
14 | CCCC/C=C/C=C/C=C/CCCCCCCC(=O)OCC(COC(=O)CCCCCCC/C=C/C1C=CC(CCCC)C(C(=O)O)C1C(=O)O)OC(=O)CCCCCCC/C=C/C=C/C=C/CCCC.OCCNCO (stereo not drawn) | 20.2 µM (inactive) | 17.8 µM (inactive) | 19.5 µM (inactive) |  | 28.8 µM (inactive) | 4.05 µM (inactive) | 19.2 µM (inactive) | 19.8 µM (inactive) | 20 µM (inactive) | 17.5 µM (inactive) | 15.8 µM (inactive) | 21.9 µM (inactive) |  | 
15 | CCC(=O)Nc1nc2c(ncn2C2OC(COC(=O)CC)C(OC(=O)CC)C2OC(=O)CC)c(=O)[nH]1 (stereo not drawn) | > 100 µM (inactive) | > 100 µM (inactive) | > 100 µM (inactive) | > 100 µM (inactive) | > 100 µM (inactive) | > 100 µM (inactive) | > 100 µM (inactive) | > 100 µM (inactive) | > 100 µM (inactive) | > 100 µM (inactive) |  | 46.6 µM (inactive) | > 100 µM (inactive) | > 100 µM (inactive)
16 | COc1ccc(/C=C2\SC(c3ccc(OC)cc3)N(NC(=O)Cc3ccccc3)C2=O)cc1 (stereo not drawn) |  | > 100 µM (inactive) | 88.1 µM (inactive) | > 100 µM (inactive) | > 100 µM (inactive) | > 100 µM (inactive) | > 100 µM (inactive) | > 100 µM (inactive) | > 100 µM (inactive) | > 100 µM (inactive) | > 100 µM (inactive) | 94.8 µM (inactive) | > 100 µM (inactive) | > 100 µM (inactive)
17 | O=[N+]([O-])c1cccc(C2=NN(c3ccccc3)C[N+](c3ccc(Br)cc3)=N2)c1 | > 100 µM (inactive) | 64.9 µM (inactive) | 50.2 µM (inactive) | < 0.01 µM (active) | > 100 µM (inactive) | > 100 µM (inactive) | > 100 µM (inactive) | 37.3 µM (inactive) | 96.4 µM (inactive) | > 100 µM (inactive) | > 100 µM (inactive) |  | > 100 µM (inactive) | 77.1 µM (inactive)
18 | CCO[C@@H]1C2C=CC(C2)[C@H]1[N+](=O)[O-] (stereo partly drawn) | > 100 µM (inactive) | > 100 µM (inactive) | 73.5 µM (inactive) |  | > 100 µM (inactive) | > 100 µM (inactive) | 64.9 µM (inactive) | > 100 µM (inactive) | > 100 µM (inactive) | > 100 µM (inactive) | > 100 µM (inactive) | 47.3 µM (inactive) | > 100 µM (inactive) | 64 µM (inactive)
19 | CCOC(=O)/C(=C/c1ccc(Cl)cc1)N(CC)CC |  | > 100 µM (inactive) | > 100 µM (inactive) | > 100 µM (inactive) | > 100 µM (inactive) | > 100 µM (inactive) | > 100 µM (inactive) | > 100 µM (inactive) | > 100 µM (inactive) | > 100 µM (inactive) | > 100 µM (inactive) | > 100 µM (inactive) | > 100 µM (inactive) | 89.1 µM (inactive)
20 | Cc1nn2c(nc1=O)sc1ccc3ccccc3c12 | > 100 µM (inactive) | > 100 µM (inactive) | > 100 µM (inactive) | > 100 µM (inactive) | > 100 µM (inactive) | > 100 µM (inactive) | > 100 µM (inactive) | > 100 µM (inactive) | > 100 µM (inactive) | > 100 µM (inactive) | > 100 µM (inactive) | > 100 µM (inactive) | > 100 µM (inactive) | 
21 | O=P(c1ccccc1)(c1ccccc1)C1CC=C2CCCCCC2C1 (stereo not drawn) | 27.6 µM (inactive) | 41.3 µM (inactive) | 28.3 µM (inactive) |  | 23.7 µM (inactive) | > 10 µM (inactive) | 25.1 µM (inactive) | 37.6 µM (inactive) | 21.8 µM (inactive) | 23.3 µM (inactive) | 24.1 µM (inactive) | 27.2 µM (inactive) | 67 µM (inactive) | 17.2 µM (inactive)
